The subject of one assay is AP-1060 (ETV6-NTRK3). In words: Cell viability assay. To be noted: read-out: IC50 in cell proliferation assay.
For another assay, the system named is 134 cancer cell lines. In words: Cell viability assay (ATPlite, 72 hours), IC50 on cancer cell line panel. To be noted: 134 cell line panel.

The source of these data is PMC9516332 (Frontiers in Oncology, 2022).

Regarding `C=CC(=O)Nc1cc(Nc2nccc(-c3cn(C)c4ccccc34)n2)c(OC)cc1N(C)CCN(C)C` [osimertinib], the IC50 in the assay with AP-1060 (ETV6-NTRK3) was 1940 nM. The “lower IC50 of the most sensitive cell line compared to the panel average” value in the assay on 134 cancer cell lines is listed as “around 300 fold”.
